In patent US20250145564A1, “SULFONYLUREA COMPOUND, PREPARATION METHOD THEREFOR, AND APPLICATION THEREOF” (SHANGHAI INSTITUTE OF MATERIA MEDICA, CHINESE ACADEMY OF …, priority 2021, published 2025):

Assays:
[1] = target: T1, sEH in cardiomyocytes (AC16) (Homo sapiens, UniProt P34913); test: Inhibition assay on sEH in cardiomyocytes (14,15-EET/DHET ELISA); type: cell-based; conditions: AC16, 0.1, 1 and 10 μM, 24 hours; for content of DHET in cardiomyocytes / content of EETs in cardiomyocytes: compared with the control
T1 construct: endogenous in cells; host or cells: AC16 human cardiomyocyte cell line (ATCC)
T1 sequence (P34913 1-555): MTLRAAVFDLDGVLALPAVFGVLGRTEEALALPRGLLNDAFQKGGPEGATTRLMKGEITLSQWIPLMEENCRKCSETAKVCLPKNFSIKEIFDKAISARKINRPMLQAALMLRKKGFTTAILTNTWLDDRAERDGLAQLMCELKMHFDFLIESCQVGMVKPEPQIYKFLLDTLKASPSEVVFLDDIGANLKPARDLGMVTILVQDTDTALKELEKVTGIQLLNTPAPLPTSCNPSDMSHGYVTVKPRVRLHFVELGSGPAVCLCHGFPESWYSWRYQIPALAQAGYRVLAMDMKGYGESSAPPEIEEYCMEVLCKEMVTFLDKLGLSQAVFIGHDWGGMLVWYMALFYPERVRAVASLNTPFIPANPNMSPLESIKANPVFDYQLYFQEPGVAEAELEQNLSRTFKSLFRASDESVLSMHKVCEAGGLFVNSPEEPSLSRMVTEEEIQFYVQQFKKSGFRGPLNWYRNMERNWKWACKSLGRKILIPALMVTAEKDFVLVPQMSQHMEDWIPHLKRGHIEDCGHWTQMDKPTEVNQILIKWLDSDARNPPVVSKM
Experimental: (§1) Biomaterial sources: Human cardiomyocyte cell line AC16 was purchased from ATCC, USA. Phenylephrine (PE) was purchased from Sigma Company. AUDA was purchased from Cayman Company.
The compounds were dissolved in DMSO. The working concentrations were 0.1, 1 and 10 μM for the compounds of the present invention, 0.1, 1 and 10 μM for glimepiride, and 1 μM for AUDA. The incubation time was 24 hours.
(§2) The ELISA detection kit (BIOTARGET 14,15-EET/DHET ELISA KIT) from Detroit R&D company was used, and the experiment was conducted according to the instructions of the kit.
(§3) After 24 hours of incubation, cardiomyocytes were collected to perform the above detection.

[2] = test system: PE induced cardiomyocyte remodeling (AC16); test: Inhibitory effect on PE induced myocardial injury (BNP mRNA); type: cell-based, human; conditions: PE 100 μM, 24 hours; compounds 0.1, 0.5, 1 μM; glimepiride 10 μM
Experimental: as §1
PE was dissolved in disinfected deionized water with a working concentration of 100 μM. The compounds were dissolved in DMSO, and the working concentrations were 0.1, 0.5, 1 μM for the compounds of the present invention, 10 μM for glimepiride, and 1 μM for AUDA. The incubation time was 24 hours.
(§4) Total RNA was extracted using Invitrogen's Trizol reagent, then cDNA was obtained using TAKARA's reverse transcription kit, and finally the mRNA content of related genes was amplified with specific primers.
as §3

sEH (human recombinant) = target: T2, sEH (human recombinant) (Homo sapiens, UniProt P34913); test: sEH inhibition assay (fluorescence);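 note: enzyme preincubated with compound 30 min at 25 °C, then substrate added and fluorescence read after 15 min at 25 °C, 320 nm and 460 nm, versus DMSO negative control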
T2 sequence (P34913 1-555): T1 sequence (P34913 1-555)
Experimental: sEH Assay Buffer was purchased from Cayman Chemical; sEH (human recombinant) was purchased from Cayman Chemical; sEH substrate was purchased from Cayman Chemical. The working solution of 20% DMSO for the compounds was prepared by mixing dimethyl sulfoxide with water in a volume ratio of 1:4, and shaking to mix well.
sEH Assay Buffer (10×), SEH (human recombinant) and sEH substrate were thawed on ice.
The sEH Assay Buffer (lux) was prepared into a 1×sEH Assay Buffer with deionized water. 12 μL of sEH was added with 588 µL of 1× Assay Buffer to be diluted 50 times to obtain a sEH working solution. 180 µL of 1× Assay Buffer was added into the corresponding wells; the sEH working solution was added to the corresponding wells at 5 μL/well; the working solution of 20% DMSO for the compounds was added into the corresponding wells at 5 μL/well, and blank wells and negative control wells added with an equal amount of DMSO were set. After centrifuged at 1000 rpm for 1 minute, the wells were incubated at 25° C. for 30 minutes. After incubation, the substrate was added into the 96-wells plate at 5 μL/well and the plate was centrifuged at 1000 rpm for 1 minute. After incubation at 25° C. for 15 minutes, fluorescence values were read at emission wavelengths of 320 nm and 460 nm.

[3] = test system: mice with chronic heart failure (TAC); test: Anti-heart failure effect in vivo, TAC mouse model; conditions: for cross-sectional area of cardiomyocytes, HE staining (myocardial hypertrophy) / positive area of Sirius red staining (myocardial fibrosis): daily gavage eight weeks, I-1, I-23 0.2 and 0.4 mg/kg, glimepiride 1.2 mg/kg; for impaired cardiac function (EF value, FS value, dp/dt reduced by TAC): daily gavage 0.2 mg/kg and 0.4 mg/kg
Excerpt: (§5) 12-week-old male C57BL/6 mice, which were purchased from Gempharmatech Co., Ltd, were raised in the SPF animal house of Tongji Medical College, Huazhong University of Science and Technology. After one week of acclimatization in the animal house, the mice were subjected to thoracic aortic constriction as the TAC group. Another group of mice were subjected to thoracotomy without ligation of thoracic aorta as Sham group. Meanwhile, AUDA was used as the positive control.
(§6) Cardiac ultrasound detection was performed on a Visual Sonics Vevo 2100 small animal ultrasound imager. The major measurement indicators include heart rate (HR), left ventricular ejection fraction (LVEF), left ventricular fractional shortening (LVFS), left ventricular internal dimension-diastole (LVIDd) and left ventricular internal dimension-systole (LVIDs), and left ventricular posterior wall thickness (LVPWd and LVPWs).
(§7) The detection was performed on a Millar pressure-volume system from Millar Instr Ment PowerLab. After the animals were anesthetized to an appropriate extent, a midline incision was made in the neck, the right common carotid artery was separated, ligated at the distal end and clipped at the proximal end. A V-shaped incision was made on the artery with microscissors, and a microcatheter was inserted to the left ventricle. Signals were recorded through a conduction system to obtain hemodynamic data such as heart rate (HR), left ventricular end diastolic pressure (PED), left ventricular end systolic pressure (PES), maximum rate of decrease in left ventricular pressure (−dp/dtmin), and maximum rate of increase in left ventricular pressure (+dP/dtmax).
(§8) The myocardial tissue was placed in an embedding frame, soaked and fixed in neutral formaldehyde solution, dehydrated, and embedded in paraffin. The paraffin block was then sliced into sections with a thickness of 4 μm on a microtome. The general appearance of the myocardium was observed through HE staining, and the myocardial fibrosis was observed through Sirius red staining.
as §4
(§9) Cardiac ultrasound examination was performed two weeks after TAC surgery. 24 TAC mice with no significant difference in cardiac function were selected and randomly divided into a model group (TAC) and a treatment group (TAC+compound). The model group received no other treatment, while the treatment group received daily gavage (0.2 mg/kg and 0.4 mg/kg for I-1 and I-23 of the present application, and 1.2 mg/kg for glimepiride). Eight weeks later, i.e., at the chronic heart failure phase, the animals were sacrificed, and tissue specimens were collected to perform the above detections.

[4] = target: T3, sEH in the hearts of mice with chronic heart failure (Mus musculus, UniProt P34914); test: sEH enzymic activity in hearts of TAC mice; type: in vivo; conditions: daily gavage 1.2 mg/kg, eight weeks
T3 construct: from tissue; host or cells: heart tissue of male C57BL/6 mice after TAC surgery
T3 sequence (P34914 1-554): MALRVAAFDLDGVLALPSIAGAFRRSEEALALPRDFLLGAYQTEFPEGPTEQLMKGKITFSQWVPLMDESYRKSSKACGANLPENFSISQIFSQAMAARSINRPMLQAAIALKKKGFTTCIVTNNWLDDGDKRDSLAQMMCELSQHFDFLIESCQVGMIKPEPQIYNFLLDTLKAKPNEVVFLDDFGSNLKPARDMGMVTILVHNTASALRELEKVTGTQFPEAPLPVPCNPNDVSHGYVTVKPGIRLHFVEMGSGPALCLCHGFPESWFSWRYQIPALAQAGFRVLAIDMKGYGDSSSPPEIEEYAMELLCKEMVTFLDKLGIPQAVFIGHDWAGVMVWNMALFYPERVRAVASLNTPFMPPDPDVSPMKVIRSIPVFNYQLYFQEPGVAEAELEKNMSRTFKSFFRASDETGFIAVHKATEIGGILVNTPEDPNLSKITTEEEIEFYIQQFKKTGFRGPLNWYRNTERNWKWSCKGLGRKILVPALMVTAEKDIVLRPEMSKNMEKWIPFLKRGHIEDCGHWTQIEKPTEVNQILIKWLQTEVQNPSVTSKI
Experimental: as §2, §5, §9

[5] = test system: mice with chronic heart failure (TAC); test: TAC mouse model, comparison of I-23 and Empagliflozin; type: in vivo
Excerpt: as §5, §6, §7, §8, §4
as §9, with “(0.44” for “(0.2 mg/kg and 0.4”, “for” for “for I-1 and”, “or 10” for “of the present application, and 1.2”, “Empagliflozin).” for “glimepiride).”
This experiment was to compare the ameliorative effects of I-23 and Empagliflozin on chronic heart failure.

[6] = I-23 0.44 mg/kg vs Empagliflozin 10 mg/kg
[7] = mice, daily gavage eight weeks, I-23 0.44 mg/kg, Empagliflozin 10 mg/kg

inhibitory effect on enzymic activity of sEH in cardiomyocytes ([1]; effect increases as the concentration increases) | increase of sEH enzymic activity in the hearts after TAC [4] | SMILES | content of DHET in cardiomyocytes [1] | content of EETs in cardiomyocytes [1] | BNP expression induced by PE (cardiomyocyte remodeling) [2] | IC50 (sEH (human recombinant)) [µM] | impaired cardiac function (EF value and dp/dt reduced by TAC) ([3]; daily gavage 1.2 mg/kg, eight weeks) | cross-sectional area of cardiomyocytes, HE staining (myocardial hypertrophy) [3] | positive area of Sirius red staining (myocardial fibrosis) [3] | impaired cardiac function (EF value, FS value, dp/dt reduced by TAC) ([3]; eight weeks) | expression of BNP in mouse cardiomyocytes after TAC ([3]; daily gavage 0.2 and 0.4 mg/kg, eight weeks) | effect on cardiac hypertrophy relative to Empagliflozin [5, 6] | effect on impaired cardiac function relative to Empagliflozin [5, 6] | cardiac hypertrophy (heart photographs, heart weight/tibia length HW/TL) [5, 7] | expression of BNP in mouse cardiomyocytes after TAC [5, 7] | impaired cardiac function (EF value, FS value, LVIDs, dp/dt) [5, 7] | positive area of Sirius red staining (myocardial fibrosis) [5, 7]
– | – | Cc1ccc(S(=O)(=O)N(C)C(=O)NN2CC3CCCC3C2)cc1 (stereo not shown) [Compound I-4] | reducing | significantly increase | can inhibit this effect | 1 to 10 | – | – | – | – | – | – | – | – | – | – | –
significant inhibitory effect | could inhibit this effect | CCC1=C(C)CN(C(=O)NCCc2ccc(S(=O)(=O)NC(=O)N[C@H]3CC[C@H](C)CC3)cc2)C1=O [glimepiride, reference compound] | – | – | can inhibit this effect | – | can inhibit this effect | can inhibit this effect | can inhibit this effect | – | – | – | – | – | – | – | –
– | – | CCC1=C(C)CN(C(=O)NCCc2ccc(S(=O)(=O)N(C)C(=O)N[C@H]3CC[C@H](C)CC3)cc2)C1=O [Compound I-1] | reducing | significantly increase | can inhibit this effect | 1 to 10 | – | can inhibit this effect | can inhibit this effect | can inhibit this effect | can inhibit this effect | – | – | – | – | – | –
– | – | CCC1=C(C)CN(C(=O)NCCc2ccc(S(=O)(=O)NC(=O)N[C@H]3CC[C@H](COC(C)=O)CC3)cc2)C1=O [Compound I-23] | reducing | significantly increase | can inhibit this effect | 1 to 10 | – | can inhibit this effect | can inhibit this effect | can inhibit this effect | – | comparable to that of Empagliflozin | comparable to that of Empagliflozin | reversal effect | can inhibit this effect | can inhibit this effect | can inhibit this effect
